Data on 22 molecules can be found in PubChem BioAssay (NCI).

Common to all, as to assay: inhibition of tumour cell growth, NCI panel, 48 h
Experiment [1] has as its system A549 NSCLC.
The subject of experiment [2] is DU-145 prostate.
For experiment [3], the system named is HS 578T breast.
Experiment [4] relates to KM12 colon.
Experiment [5] deals with LOX IMVI melanoma.
The subject of experiment [6] is M14 melanoma.
Experiment [7] relates to MCF7 breast.
Experiment [8] deals with NCI-H460 lung.
In experiment [9] the test system is SK-OV-3 ovarian.
Experiment [10] deals with U251 CNS.

Molecules are shown by their SMILES.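 Following 48 hours of exposure in 96-well plates, responses at five concentrations were used to interpolate endpoints linearly. GI50 = concentration required for 50% inhibition of growth. TGI: total growth inhibition.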

On to `O=[N+]([O-])c1ccc2c(c1)c(OCc1ccccc1)nn2Cc1ccccc1`, for which the TGI in [1], in [2], in [3], in experiment [4], in experiment [5] and in [6] was greater than 100 µM throughout. The TGI in experiment [7], in experiment [8] and in experiment [9] was greater than 100 µM in each case.

With `COc1ccc(-c2c(C#N)c(-c3ccc(C)cc3)n(NS(=O)(=O)c3ccc(C)cc3)c(=O)c2C#N)cc1`, the TGI in [1] is greater than 100 µM; in [3] it was 75.1 µM; in [4] it was greater than 100 µM; in [5], greater than 100 µM; in experiment [6] it was greater than 100 µM; in experiment [7], greater than 100 µM. Besides, the TGI in [8], in experiment [9] and in experiment [10] was greater than 100 µM each time.

On to `Cc1ccc(-c2n[nH]c(=O)n2N2C(=O)c3ccccc3C2=O)cc1`, for which the TGI in [1], in experiment [2], in experiment [3], in [4], in experiment [5] and in experiment [6] was greater than 100 µM throughout. Also, the TGI in [7], in experiment [8] and in experiment [10] was greater than 100 µM each time.

For the molecule `O=C1/C(=C/c2ccccc2)N=C2Sc3c(nc[nH]c3=O)N12`, the TGI in experiment [1], in [2], in experiment [3], in experiment [4], in [5] and in experiment [6] was greater than 100 µM each time. Also, the TGI in [7], in experiment [9] and in [10] was greater than 100 µM throughout.

Regarding `CC(C)(C)OC(=O)N[C@H]1CCN(C2CCCCC2)C1=O`, the TGI in experiment [1], in experiment [2], in experiment [3], in experiment [5], in experiment [6] and in [7] was greater than 100 µM throughout. For the same molecule, the TGI in experiment [8], in experiment [9] and in experiment [10] was greater than 100 µM throughout.

As to `N#Cc1c(N2CCCC2)ncn(-c2ccccc2)c1=O`, the TGI in experiment [1], in [2], in experiment [3], in [4], in experiment [5] and in experiment [6] was greater than 100 µM in each case. The TGI in [8], in [9] and in [10] was greater than 100 µM in each case.

On to `COc1ccc(C2CC(c3c(O)ccc4ccccc34)=NN2C(C)=O)cc1OC` (stereo not given), for which the TGI is greater than 100 µM in [1]; 92 µM in experiment [2]; greater than 100 µM in experiment [3]; greater than 100 µM in experiment [4]; 69.4 µM in experiment [6]; 71.5 µM in [7]. Further, the TGI in experiment [8] is 93.5 µM; in experiment [9], greater than 100 µM; in experiment [10] it was greater than 100 µM.

With `CCOC(=O)c1cn2c(n1)sc1cccc(C)c12`, the TGI in experiment [1], in experiment [2], in experiment [3], in experiment [4], in experiment [5] and in [6] was greater than 100 µM in each case. Moreover, the TGI in [7], in experiment [8] and in [9] was greater than 100 µM in each case.

In the case of `Cc1cn2c(/C=N/N=C(N)N)c(-c3cccc([N+](=O)[O-])c3)nc2s1`, the TGI in [1] was found to be 4.94 µM; in experiment [2], 3.27 µM; in experiment [3] it was 5.19 µM; in [4], 2.38 µM; in experiment [5], 2.22 µM; in [6], 4.36 µM. For the same molecule, the TGI in [7] worked out at 2.12 µM; in experiment [8], 3.78 µM; in experiment [10], 2.95 µM.

For `O=C1CCCSC(=O)N1Cc1ccccc1`, the TGI in experiment [1], in experiment [2], in experiment [3], in [4], in experiment [5] and in experiment [6] was greater than 100 µM each time. In addition, the TGI in experiment [7], in experiment [8] and in experiment [9] was greater than 100 µM throughout.

As to `N#CC1(C#N)N[C@@H](c2ccsc2)[C@H]2C(=O)N(c3ccccc3)C(=O)[C@H]21`, the TGI in [1], in [2], in [3], in experiment [4], in experiment [5] and in experiment [9] was greater than 100 µM each time. Further, the TGI in experiment [10] was greater than 100 µM.

Take `COc1ccc2c(c1)/C(=C/CCN(C)C)c1ccccc1S2`: the TGI in experiment [1], in experiment [2], in [3], in experiment [4], in [5] and in [6] was greater than 100 µM each time. The TGI in experiment [8], in experiment [9] and in experiment [10] was greater than 100 µM throughout.

For the molecule `C[C@]12CCC(O)CC1=CC[C@@H]1[C@@H]2CC[C@]2(C)C(=O)[C@H](n3ccnc3)C[C@@H]12` (stereo not given in full), the TGI in [1], in [2], in experiment [3], in experiment [4], in experiment [5] and in experiment [6] was greater than 100 µM each time. For the same molecule, the TGI in experiment [7], in experiment [8] and in experiment [10] was greater than 100 µM each time.

With `O=c1ccc(-c2ccccc2)n[nH]1`, the TGI in experiment [1], in [2], in [3], in experiment [4], in [5] and in experiment [6] was greater than 100 µM each time. Also, the TGI in experiment [8] and in experiment [10] was greater than 100 µM in each case.

Consider `Cc1ccc(N=NC(=Nc2ccccc2)c2ccc(N(CCC#N)CCC#N)cc2)cc1`, for which the TGI was 80.7 µM in experiment [1]; greater than 100 µM in experiment [2]; greater than 100 µM in experiment [3]; greater than 100 µM in experiment [4]; greater than 100 µM in experiment [6]; 79.2 µM in [7]. Also, the TGI was 45.5 µM in [8], greater than 100 µM in [9] and 71.2 µM in experiment [10].

For the molecule `c1ccc(N=c2sc3ccccc3nc2Nc2ccccc2)cc1`, the TGI in [1], in [2], in [3], in [4], in experiment [5] and in [8] was greater than 100 µM each time. The TGI in experiment [9] and in [10] was greater than 100 µM throughout.

As for `COc1cc2c(c(OC)c1OC)C(=O)[C@@H]1[C@H]2N1C(N)=O`, the TGI in experiment [1], in experiment [2], in experiment [3], in experiment [4], in [5] and in experiment [6] was greater than 100 µM in each case. In addition, the TGI in experiment [7], in [8] and in experiment [10] was greater than 100 µM in each case.

`O=C(NC(=O)c1ccccc1[N+](=O)[O-])Nc1ccc(Oc2ncc(Br)cn2)c(Cl)c1`: the GI50 in [1] is less than 24.8 nM; in experiment [4] it was less than 19.6 nM; in experiment [5], less than 20.8 nM; in experiment [8], less than 19.7 nM; in experiment [9] it was less than 17.6 nM; in [10], less than 18.5 nM. Also, the TGI in experiment [1] was greater than 100 µM; in experiment [2], 0.0902 µM; in experiment [3], 0.0934 µM; in experiment [5] it was greater than 100 µM; in [10], greater than 64.4 µM.

As for `O=C1CCCc2cc3c(cc21)CC1(Cc2ccccc2C1)C3`, the TGI in [1] was 43.3 µM; in [3], greater than 100 µM; in experiment [4], 13.7 µM; in experiment [5], 28.6 µM; in experiment [6], 25.3 µM; in experiment [7] it was 61.2 µM. In addition, the TGI in experiment [9] stood at 97.3 µM; in experiment [10] it was 64 µM.

On to `COC(=O)c1c(C)cccc1C1CN=NC12Cc1ccc(C)cc1C2=O` (stereo not given), for which the TGI in experiment [1], in experiment [2], in experiment [3], in [4], in experiment [5] and in [6] was greater than 100 µM each time. The TGI was greater than 100 µM in experiment [7], 28.2 µM in experiment [8] and greater than 100 µM in [10].

With `Nn1c(-c2ccccc2)nn(C(=O)c2ccccc2)c1=O`, the TGI in experiment [1], in experiment [2], in [3], in experiment [4], in experiment [5] and in experiment [6] was greater than 100 µM each time. Moreover, the TGI in experiment [7], in experiment [8] and in experiment [10] was greater than 100 µM each time.

As for `COc1cc(C(=O)N(C(=S)OCc2ccccn2)c2ccccc2)cc(OC)c1OC`, the TGI in experiment [2], in experiment [3], in experiment [4], in experiment [5], in experiment [6] and in experiment [7] was greater than 100 µM each time. Moreover, the TGI in [8], in [9] and in [10] was greater than 100 µM throughout.
